Measurements published in the NIST ThermoML archive (doi:10.1016/j.jct.2013.08.029).
± gives the expanded uncertainty stated by the source.

Test: xn = mol fraction of the nth substance listed
Conditions: 101 kPa, Liquid, Vibrating tube method, x2 = 0.5

SMILES: O=C(O)CC(=O)O [propanedioic acid] + C[N+](C)(C)CCO.[Cl-]
- mass density (303.15 K): 1189.9 ± 0.6 kg/m3
- mass density (308.15 K): 1187.3 ± 0.6 kg/m3
- mass density (313.15 K): 1184.7 ± 0.6 kg/m3
- mass density (318.15 K): 1182.1 ± 0.6 kg/m3
- mass density (323.15 K): 1179.7 ± 0.6 kg/m3
